The values below come from US20070249655A1, “4-Substituted-1,5-Dihydro-Pyrido[3,2-B]Indol-2-Ones” (priority 2004, published 2007).

Like-named read-outs stand apart in the source and are kept apart here.

A word on the CC50: it is the concentration giving 50% cytotoxicity. A higher CC50 goes with better tolerance by the cells.

What all share (type): cell-based
The test system of data set [1] is wild type laboratory HIV strain (HIV-1 strain LAI). Nature of the data set: Antiviral cellular assay (MT4 cells, MTT), wild type. As for the experimental part: The compounds of the present invention were examined for anti-viral activity in a cellular assay. […] The cellular assay was performed according to the following procedure.
(§1) HIV- or mock-infected MT4 cells were incubated for five days in the presence of various concentrations of the inhibitor. At the end of the incubation period, the replicating virus in the control cultures has killed all HIV-infected cells in the absence of any inhibitor. Cell viability was determined by measuring the concentration of MTT, a yellow, water soluble tetrazolium dye that is converted to a purple, water insoluble formazan in the mitochondrial of living cells only. Upon solubilization of the resulting formazan crystals with isopropanol, the absorbance of the solution was monitored at 540 nm. The values correlate directly to the number of living cells remaining in the culture at the completion of the five day incubation. The inhibitory activity of the compound was monitored on the virus-infected cells and was expressed as EC50 and EC90. These values represent the amount of the compound required to protect 50% and 90%, respectively, of the cells from the cytopathogenic effect of the virus. The toxicity of the compound was measured on the mock-infected cells and was expressed as CC50, which represents the concentration of compound required to inhibit the growth of the cells by 50%. The selectivity index (SI) (ratio CC50/EC50) is an indication of the selectivity of the anti-HIV activity of the inhibitor. Wherever results are reported as e.g. pEC50 or pCC50 values, the result is expressed as the negative logarithm of the result expressed as EC50 or CC50 respectively.

Data set [2] deals with HIV strain H (K103N, Y181C). Nature of the data set: Antiviral cellular assay, mutant strain H. As for the experimental part:
as §1
(§2) Because of the increasing emergence of drug resistant HIV strains, the present compounds were also tested for their potency against clinically isolated HIV strains harbouring several mutations (Tables 1 and 7). These mutations are associated with resistance to reverse transcriptase inhibitors and result in viruses that show various degrees of phenotypic cross-resistance to the currently commercially available drugs such as for instance AZT, didanosine, nevirapine, lamivudine and zalcibatine.

In data set [3] the test system is HIV strain G (V106A, F227L). Nature of the data set: Antiviral cellular assay, mutant strain G. The procedure: as §1, §2
For the next data set, the system named is HIV strain F (Y188L). Kind of data set: Antiviral cellular assay, mutant strain F. The procedure:
as §1, §2

The subject of another data set is HIV strain A (Y181C). Kind of data set: Antiviral cellular assay, mutant strain A. As for the experimental part: as §1, §2
Data set [4] deals with SIV (simian immunodeficiency virus). Kind of data set: Antiviral cellular assay, SIV. Particulars: read-out: pEC50 towards SIV (converted).
Data set [5] deals with HIV strain K (multi-mutant incl. M41L, D67N, K103N, Y181C, L210W, T215Y). Kind of data set: Antiviral cellular assay, mutant strain K. The procedure: as §1, §2
In data set [6] the test system is HIV strain I (K101E, K103N). Nature of the data set: Antiviral cellular assay, mutant strain I. The procedure:
as §1, §2

Data set [7] has as its system HIV strain J (I31L, L100I, K103N, E138G, Y181C, L214F). Nature of the data set: Antiviral cellular assay, mutant strain J. The procedure: as §1, §2
The next data set relates to HIV strain E (F227C). Nature of the data set: Antiviral cellular assay, mutant strain E. The procedure: as §1, §2
The subject of another data set is HIV-2. Kind of data set: Antiviral cellular assay, HIV-2. The note with it: Human immunodeficiency virus 2; read-out: pEC50 towards HIV-2 (converted). The procedure: as §1, with “The toxicity of the compound was measured on the mock-infected cells and was expressed as CC50, which represents the concentration of compound required to inhibit the growth of the cells by 50%. The selectivity index (SI) (ratio CC50/EC50) is an indication of the selectivity of the anti-HIV activity of the inhibitor.” left out
(§3) Row WT: pEC50 against wild type HlV-LAI strain. The toxicity (Tox) is expressed as the pCC50 value as determined with mock transfected cells. ND means not determined.

Another data set in a line: in vitro. The note with it: human. As for the experimental part:
as §1, with “The toxicity of the compound was measured on the mock-infected cells and was expressed as CC50, which represents the concentration of compound required to inhibit the growth of the cells by 50%. The selectivity index (SI) (ratio CC50/EC50) is an indication of the selectivity of the anti-HIV activity of the inhibitor.” left out
as §3

For data set [8], the system named is HIV strain D (L100I;K103N). Nature of the data set: Antiviral cellular assay, mutant strain D. The procedure:
as §1, §2

A further data set has as its system HIV strain B (K103N). Kind of data set: Antiviral cellular assay, mutant strain B. As for the experimental part: as §1, §2
The subject of data set [9] is HIV strain C (L100I; K103N). Kind of data set: Antiviral cellular assay, mutant strain C. As for the experimental part: as §1, §2
Where [10] appears, read: Human immunodeficiency virus 1, WT, MT4 cells, read-out: pEC50 against wild type HIV-LAI strain (converted).
[11] abbreviates: EC50 mutant / EC50 wild type, rounded to nearest integer.
Setting [12] is: Human immunodeficiency virus 1, MT4, read-out: EC50 value, wild-type HIV-LAI strain.

As to `CC(=O)CC1C(C#N)=C(N(C)C)N(c2ccc([N+](=O)[O-])cc2)c2c1n(C)c1ccccc21` (stereo not drawn) [2-(dimethylamino)-4,5-dihydro-5-methyl-1-(4-nitrophenyl)-4-(2-oxopropyl)-1H-pyrido[3,2-b]indole-3-carbonitrile, reference compound], the EC50 in data set [1] (setting [10]) is 3.16 µM.
`N#Cc1cc2[nH]c3ccccc3c2n(-c2ccc([N+](=O)[O-])cc2)c1=O` [Compound 1, 1-(4-nitro-phenyl)-2-oxo-2,5-dihydro-1H-pyrido[3,2-b]indole-3-carbonitrile]: the “fold resistance, mutant H” value in [2] (setting [11]) is recorded as “(5)”. The EC50 was 1.58 µM in data set [2] (Human immunodeficiency virus 1, read-out: pEC50 towards mutant H (converted)); 0.631 µM in data set [3] (Human immunodeficiency virus 1, read-out: pEC50 towards mutant G (converted)); 1.26 µM in the data set with HIV strain F (Y188L) (Human immunodeficiency virus 1, read-out: pEC50 towards mutant F (converted)); 2.51 µM in the data set with HIV strain A (Y181C) (Human immunodeficiency virus 1, read-out: pEC50 towards mutant A (converted)); 0.316 µM in data set [1] (setting [10]); 7.94 µM in data set [4]. For the same compound, the EC50 in data set [5] (Human immunodeficiency virus 1, read-out: pEC50 towards mutant K (converted)) is 0.316 µM; in data set [6] (Human immunodeficiency virus 1, read-out: pEC50 towards mutant I (converted)), 0.794 µM; in [7] (Human immunodeficiency virus 1, read-out: pEC50 towards mutant J (converted)), 1.58 µM; with HIV strain E (F227C) (Human immunodeficiency virus 1, read-out: pEC50 towards mutant E (converted)), 2 µM; with HIV-2, 6.31 µM; in data set [8] (Human immunodeficiency virus 1, read-out: pEC50 towards mutant D (converted)), 1 µM. For the same compound, the EC50 was 1.26 µM in the data set with HIV strain B (K103N) (Human immunodeficiency virus 1, read-out: pEC50 towards mutant B (converted)) and 2.51 µM in data set [9] (Human immunodeficiency virus 1, read-out: pEC50 towards mutant C (converted)). The “fold resistance, mutant G” value in [3] (setting [11]) is on record as “(2)”. Also, the “fold resistance, mutant F” value in the data set on HIV strain F (Y188L) (setting [11]) is on record as “(4)”. The “fold resistance, mutant A” value in the data set with HIV strain A (Y181C) (setting [11]) is recorded as “(8)”. In data set [5] (setting [11]), the “fold resistance, mutant K” value is given as “(1)”. Further, the “fold resistance, mutant I” value in data set [6] (setting [11]) is recorded as “(3)”. Also, the “fold resistance, mutant J” value in data set [7] (setting [11]) is recorded as “(5)”. Besides, the “fold resistance, mutant E” value with HIV strain E (F227C) (setting [11]) was “(6)”. In “in vitro”, this compound returned a CC50 at 5 days greater than 32.4 µM. Also, the “fold resistance, mutant D” value in data set [8] (setting [11]) was “(3)”. Also, in the data set on HIV strain B (K103N) (setting [11]), the “fold resistance, mutant B” value is given as “(4)”. The “fold resistance, mutant C” value in [9] (setting [11]) was “(8)”.
On to `N#Cc1cc2c(c3ccccc3n2Cc2ccccc2)n(-c2ccc([N+](=O)[O-])cc2)c1=O` [Compound 6], for which the EC50 in [1] (setting [12]) lay in the range of 1 to 32 µM.
With `CCCCn1c2ccccc2c2c1cc(C#N)c(=O)n2-c1ccc([N+](=O)[O-])cc1` [Compound 8], the EC50 in data set [1] (setting [12]) is less than 1 µM.
For the compound `CCn1c2ccccc2c2c1cc(C#N)c(=O)n2-c1ccc([N+](=O)[O-])cc1` [Compound 9], the EC50 in [1] (setting [12]) was less than 1 µM.
Regarding `N#Cc1cc2c(c3ccccc3n2C2CCCC2)n(-c2ccc([N+](=O)[O-])cc2)c1=O` [Compound 10], the EC50 in data set [1] (setting [12]) lay in the range of 1 to 32 µM.
Same read-out and setting: under `N#Cc1cc2c(c3ccccc3n2CC(=O)O)n(-c2ccc([N+](=O)[O-])cc2)c1=O` [Compound 19] stands 1 to 32 µM.
On the same count and under the same terms, as for `N#Cc1cc2[nH]c3ccccc3c2n(-c2ccc(F)cc2)c1=O` [Compound 37], the figure is greater than 32 µM; as for `N#Cc1cc2[nH]c3ccccc3c2n(-c2ccc(Br)cc2)c1=O` [Compound 38], 1 to 32 µM.
The same measure, in the same setting: under `Cn1c2ccccc2c2c1cc(C#N)c(=O)n2-c1ccc(Br)cc1` [Compound 39] stands 1 to 32 µM; under `N#Cc1cc2[nH]c3ccccc3c2n(-c2ccc(F)c([N+](=O)[O-])c2)c1=O` [Compound 41], 1 to 32 µM.
Turning to `N#Cc1cc2[nH]c3ccccc3c2n(-c2cccc([N+](=O)[O-])c2)c1=O` [Compound 42], in [1] (setting [12]), the EC50 lay in the range of 1 to 32 µM.
Same read-out and setting: as for `Cn1c2ccccc2c2c1cc(C#N)c(=O)n2-c1cccc([N+](=O)[O-])c1` [Compound 43], the figure is less than 1 µM.
Same read-out and setting: as for `Cn1c2ccccc2c2c1cc(C#N)c(=O)n2-c1ccc(F)cc1` [Compound 44], the figure is greater than 32 µM; as for `N#Cc1ccc(-n2c(=O)c(C#N)cc3[nH]c4ccccc4c32)cc1` [Compound 45], greater than 32 µM.
On the same count and under the same terms, as for `Cn1c2ccccc2c2c1cc(C#N)c(=O)n2-c1ccc(C#N)cc1` [Compound 46], the figure is 1 to 32 µM; as for `Cn1c2ccccc2c2c1cc(C#N)c(=O)n2-c1ccc(-c2ccco2)cc1` [Compound 48], 1 to 32 µM.
As for `O=c1ccc2[nH]c3ccccc3c2n1-c1ccc([N+](=O)[O-])cc1` [Compound 66], the EC50 in data set [1] (setting [12]) was 1 to 32 µM.
Same read-out and setting: as for `Cn1c2ccccc2c2c1ccc(=O)n2-c1ccc([N+](=O)[O-])cc1` [Compound 67], the figure is less than 1 µM; as for `Cn1c2ccccc2c2c1cc(Br)c(=O)n2-c1ccc([N+](=O)[O-])cc1` [Compound 68], less than 1 µM; as for `Cn1c2ccccc2c2c1cc(C(=N)NO)c(=O)n2-c1ccc([N+](=O)[O-])cc1` [Compound 70], 1 to 32 µM.
Same read-out and setting: as for `Cn1c2ccccc2c2c1cc(Cl)c(=O)n2-c1ccc(C(=O)O)cc1` [Compound 87], the figure is 1 to 32 µM; as for `Cn1c2ccccc2c2c1cc(C#N)c(=O)n2-c1ccc(N)cc1` [Compound 89], greater than 32 µM; as for `N#Cc1ccc(-n2c(=O)ccc3[nH]c4ccccc4c32)cc1` [Compound 93], 1 to 32 µM.
Consider `O=C(O)c1ccc(-n2c(=O)ccc3[nH]c4ccccc4c32)cc1` [Compound 94], for which, in [1] (setting [12]), the EC50 was 1 to 32 µM.
Consider `Cn1c2ccccc2c2c1ccc(=O)n2-c1ccc(C#N)cc1` [Compound 96], for which, in data set [1] (setting [12]), the EC50 lay within 1 to 32 µM.
Still for that read-out and setting: as for `Cn1c2ccccc2c2c1ccc(=O)n2-c1ccc(/C(N)=N/O)cc1` [Compound 97], the figure is 1 to 32 µM.
The same measure, in the same setting: under `Cn1c2ccccc2c2c1ccc(=O)n2-c1ccc(C(N)=O)cc1` [Compound 98] stands 1 to 32 µM; under `Cn1c2ccccc2c2c1ccc(=O)n2-c1ccc(C(=O)O)cc1` [Compound 99], 1 to 32 µM.
